From patent US20260176320A1, “MODULATORS OF G-PROTEIN COUPLED RECEPTORS” (priority 2018, published 2026) come the findings set out here.

Like-named read-outs stand apart in the source and are kept apart here.

One experiment deals with GLP-1R (Homo sapiens, UniProt P43220). In words: HitHunter cAMP assay (GLP-1R). It counts as cell-based. The conditions noted are these: cAMP; for Emax: read-out: (Emax) GLP-1R; for EC50: read-out: EC50 GLP-1R/nM. The procedure, abridged: (§1)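 Cells were resuspended in HBSS plus HEPES, IBMX (625 μM) and BSA, then dispensed with antibody at 10,000 per well. Agonists followed as 22-point twofold series, 30 min at room temperature. Antibody reagent and detection steps ran 1 h and overnight in the dark before luminescence.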
A general note: cAMP levels reflect the balance of adenylyl cyclase and phosphodiesterase activity.

The target in another experiment is T1, GIP-R (Homo sapiens, UniProt P48546).
T1 sequence (P48546 22-466): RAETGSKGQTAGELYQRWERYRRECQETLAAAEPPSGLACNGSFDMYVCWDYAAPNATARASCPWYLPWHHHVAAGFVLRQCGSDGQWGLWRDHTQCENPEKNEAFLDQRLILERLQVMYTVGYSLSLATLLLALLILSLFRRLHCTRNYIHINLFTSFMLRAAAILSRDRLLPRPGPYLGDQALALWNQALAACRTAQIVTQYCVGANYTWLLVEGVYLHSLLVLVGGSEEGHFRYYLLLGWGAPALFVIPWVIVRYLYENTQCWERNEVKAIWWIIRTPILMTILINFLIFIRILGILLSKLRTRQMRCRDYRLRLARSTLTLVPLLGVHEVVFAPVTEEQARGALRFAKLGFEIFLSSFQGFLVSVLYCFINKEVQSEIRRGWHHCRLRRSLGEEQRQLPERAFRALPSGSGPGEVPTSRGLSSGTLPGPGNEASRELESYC
In words: HitHunter cAMP assay (GIP-R). It counts as cell-based. The conditions noted are these: cAMP; for Emax at 1 µM: read-out: (Emax) GIP-R at 1 μM, Table 3; for Emax: read-out: (Emax) GIP-R; for EC50: read-out: EC50 GIP-R/nM. The gist of the method:
as §1

GLP-1R, sequence (P43220 24-463): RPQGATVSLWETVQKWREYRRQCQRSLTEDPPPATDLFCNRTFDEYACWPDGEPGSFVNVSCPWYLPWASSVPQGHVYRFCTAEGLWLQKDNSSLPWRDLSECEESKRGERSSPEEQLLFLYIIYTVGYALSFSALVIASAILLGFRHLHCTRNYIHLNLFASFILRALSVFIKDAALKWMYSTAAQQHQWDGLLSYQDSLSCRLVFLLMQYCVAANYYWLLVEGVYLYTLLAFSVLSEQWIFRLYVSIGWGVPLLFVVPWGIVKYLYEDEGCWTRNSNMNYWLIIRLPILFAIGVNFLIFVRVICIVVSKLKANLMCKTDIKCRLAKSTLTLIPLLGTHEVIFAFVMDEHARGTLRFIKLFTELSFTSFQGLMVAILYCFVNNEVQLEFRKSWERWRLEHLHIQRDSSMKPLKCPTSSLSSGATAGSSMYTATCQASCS

For `CCCCCCCCCCCCCCCC(=O)N[C@@H](CCC(=O)NCCCC[C@H](NC(=O)[C@H](CO)NC(=O)[C@@H]1CCCN1C(=O)[C@@H]1CCCN1C(=O)[C@@H]1CCCN1C(=O)[C@H](C)NC(=O)CNC(=O)[C@H](CO)NC(=O)[C@H](CO)NC(=O)[C@@H]1CCCN1C(=O)CNC(=O)CNC(=O)[C@H](C)NC(=O)[C@H](CC(C)C)NC(=O)[C@H](CC(C)C)NC(=O)[C@H](Cc1c[nH]c2ccccc12)NC(=O)[C@H](CC(N)=O)NC(=O)[C@@H](NC(=O)[C@H](Cc1ccccc1)NC(=O)[C@H](CCC(=O)O)NC(=O)C(C)(C)NC(=O)[C@H](C)NC(=O)[C@H](C)NC(=O)[C@H](CCC(N)=O)NC(=O)[C@H](CCCCN)NC(=O)[C@H](CC(=O)O)NC(=O)[C@H](CC(C)C)NC(=O)[C@H](Cc1ccc(O)cc1)NC(=O)[C@@H](NC(=O)[C@H](CO)NC(=O)[C@H](Cc1ccc(O)cc1)NC(=O)[C@H](CC(=O)O)NC(=O)[C@H](CO)NC(=O)[C@@H](NC(=O)[C@H](Cc1ccccc1)NC(=O)[C@@H](NC(=O)CNC(=O)[C@H](CCC(=O)O)NC(=O)CSCC(=O)NCCC1=CCCC1)[C@@H](C)O)[C@@H](C)O)[C@@H](C)CC)C(C)C)C(N)=O)C(=O)O` [Compound 54], on GLP-1R (Table 3), the Emax was determined as 107% and the EC50 is < 0.1 nM. Moreover, at GLP-1R (Table 3A), the Emax came to 107% and the EC50 was < 0.1 nM. In addition, the maximal effect (Emax) at 1 µM at GIP-R amounted to 6%.
As to `CCCCCCCCCCCCCCCC(=O)N[C@@H](CCC(=O)NCCCC[C@H](NC(=O)[C@H](CO)NC(=O)[C@@H]1CCCN1C(=O)[C@@H]1CCCN1C(=O)[C@@H]1CCCN1C(=O)[C@H](C)NC(=O)CNC(=O)[C@H](CO)NC(=O)[C@H](CO)NC(=O)[C@@H]1CCCN1C(=O)CNC(=O)CNC(=O)[C@H](C)NC(=O)[C@H](CC(C)C)NC(=O)[C@H](CC(C)C)NC(=O)[C@H](Cc1c[nH]c2ccccc12)NC(=O)[C@H](CC(N)=O)NC(=O)[C@@H](NC(=O)[C@H](Cc1ccccc1)NC(=O)[C@H](CCC(=O)O)NC(=O)C(C)(C)NC(=O)[C@H](C)NC(=O)[C@H](C)NC(=O)[C@H](CCC(N)=O)NC(=O)[C@H](CCCCN)NC(=O)[C@H](CC(=O)O)NC(=O)[C@H](CC(C)C)NC(=O)[C@H](Cc1ccc(O)cc1)NC(=O)[C@@H](NC(=O)[C@H](CO)NC(=O)[C@H](Cc1ccc(O)cc1)NC(=O)[C@H](CC(=O)O)NC(=O)[C@H](CO)NC(=O)[C@@H](NC(=O)[C@H](Cc1ccccc1)NC(=O)[C@@H](NC(=O)CNC(=O)[C@H](CCC(=O)O)NC(=O)CSCC(=O)NCCN1C(=O)CCN1C)[C@@H](C)O)[C@@H](C)O)[C@@H](C)CC)C(C)C)C(N)=O)C(=O)O` [Compound 55], the maximal response (Emax) at GLP-1R (Table 3) amounted to 104%; at GLP-1R (Table 3A), 104%; at GIP-R (Table 3), 47%; on GIP-R (Table 3A), 47%. The EC50 at GLP-1R (Table 3) lay in the range of 0.1 to 1 nM; at GLP-1R (Table 3A), 0.1 to 1 nM; at GIP-R (Table 3), 1 to 10 nM; on GIP-R (Table 3A), 1 to 10 nM.
Consider `CCCCCCCCCCCCCCCC(=O)NCCCC[C@H](NC(=O)[C@H](CO)NC(=O)[C@@H]1CCCN1C(=O)[C@@H]1CCCN1C(=O)[C@@H]1CCCN1C(=O)[C@H](C)NC(=O)CNC(=O)[C@H](CO)NC(=O)[C@H](CO)NC(=O)[C@@H]1CCCN1C(=O)CNC(=O)CNC(=O)[C@H](C)NC(=O)[C@H](CC(C)C)NC(=O)[C@H](CC(C)C)NC(=O)[C@H](Cc1c[nH]c2ccccc12)NC(=O)[C@H](CC(N)=O)NC(=O)[C@@H](NC(=O)[C@H](Cc1ccccc1)NC(=O)[C@H](CCC(=O)O)NC(=O)C(C)(C)NC(=O)[C@H](C)NC(=O)[C@H](C)NC(=O)[C@H](CCC(N)=O)NC(=O)[C@H](CCCCN)NC(=O)[C@H](CC(=O)O)NC(=O)[C@H](CC(C)C)NC(=O)[C@H](Cc1ccc(O)cc1)NC(=O)[C@@H](NC(=O)[C@H](CO)NC(=O)[C@H](Cc1ccc(O)cc1)NC(=O)[C@H](CC(=O)O)NC(=O)[C@H](CO)NC(=O)[C@@H](NC(=O)[C@H](Cc1ccccc1)NC(=O)[C@@H](NC(=O)CNC(=O)[C@H](CCC(=O)O)NC(=O)CSCC(=O)NCCN1C(=O)CSC1=O)[C@@H](C)O)[C@@H](C)O)[C@@H](C)CC)C(C)C)C(=O)O` [Compound 56], for which the maximal effect (Emax) at GLP-1R (Table 3) is 110%; at GLP-1R (Table 3A), 110%; at GIP-R (Table 3), 60%; on GIP-R (Table 3A), 60%. In addition, the EC50 lay in the range of 0.1 to 1 nM at GLP-1R (Table 3), 0.1 to 1 nM on GLP-1R (Table 3A), 1 to 10 nM on GIP-R (Table 3) and 1 to 10 nM on GIP-R (Table 3A).
Consider `CCCCCCCCCCCCCCCC(=O)N[C@@H](CCC(=O)NCCCC[C@H](NC(=O)[C@H](CO)NC(=O)[C@@H]1CCCN1C(=O)[C@@H]1CCCN1C(=O)[C@@H]1CCCN1C(=O)[C@H](C)NC(=O)CNC(=O)[C@H](CO)NC(=O)[C@H](CO)NC(=O)[C@@H]1CCCN1C(=O)CNC(=O)CNC(=O)[C@H](C)NC(=O)[C@H](CC(C)C)NC(=O)[C@H](CC(C)C)NC(=O)[C@H](Cc1c[nH]c2ccccc12)NC(=O)[C@H](CC(N)=O)NC(=O)[C@@H](NC(=O)[C@H](Cc1ccccc1)NC(=O)[C@H](CCC(=O)O)NC(=O)C(C)(C)NC(=O)[C@H](C)NC(=O)[C@H](C)NC(=O)[C@H](CCC(N)=O)NC(=O)[C@H](CCCCN)NC(=O)[C@H](CC(=O)O)NC(=O)[C@H](CC(C)C)NC(=O)[C@H](Cc1ccc(O)cc1)NC(=O)[C@@H](NC(=O)[C@H](CO)NC(=O)[C@H](Cc1ccc(O)cc1)NC(=O)[C@H](CC(=O)O)NC(=O)[C@H](CO)NC(=O)[C@@H](NC(=O)[C@H](Cc1ccccc1)NC(=O)[C@@H](NC(=O)CNC(=O)[C@H](CCC(=O)O)NC(=O)CSCC(=O)NCCC1CCCC1)[C@@H](C)O)[C@@H](C)O)[C@@H](C)CC)C(C)C)C(N)=O)C(=O)O` [Compound 57], for which the Emax at GLP-1R (Table 3) and on GLP-1R (Table 3A) was 109% throughout. Besides, the EC50 at GLP-1R (Table 3) and at GLP-1R (Table 3A) was 0.1 to 1 nM in each case. On GIP-R, the maximal effect (Emax) at 1 µM turned out to be 7%.
As for `CCCCCCCCCCCCCCCC(=O)N[C@@H](CCC(=O)NCCCC[C@H](NC(=O)[C@H](CO)NC(=O)[C@@H]1CCCN1C(=O)[C@@H]1CCCN1C(=O)[C@@H]1CCCN1C(=O)[C@H](C)NC(=O)CNC(=O)[C@H](CO)NC(=O)[C@H](CO)NC(=O)[C@@H]1CCCN1C(=O)CNC(=O)CNC(=O)[C@H](C)NC(=O)[C@H](CC(C)C)NC(=O)[C@H](CC(C)C)NC(=O)[C@H](Cc1c[nH]c2ccccc12)NC(=O)[C@H](CC(N)=O)NC(=O)[C@@H](NC(=O)[C@H](Cc1ccccc1)NC(=O)[C@H](CCC(=O)O)NC(=O)C(C)(C)NC(=O)[C@H](C)NC(=O)[C@H](C)NC(=O)[C@H](CCC(N)=O)NC(=O)[C@H](CCCCN)NC(=O)[C@H](CC(=O)O)NC(=O)[C@H](CC(C)C)NC(=O)[C@H](Cc1ccc(O)cc1)NC(=O)[C@@H](NC(=O)[C@H](CO)NC(=O)[C@H](Cc1ccc(O)cc1)NC(=O)[C@H](CC(=O)O)NC(=O)[C@H](CO)NC(=O)[C@@H](NC(=O)[C@H](Cc1ccccc1)NC(=O)[C@@H](NC(=O)CNC(=O)[C@H](CCC(=O)O)NC(=O)CSCC(=O)NCCN1NCCC1=O)[C@@H](C)O)[C@@H](C)O)[C@@H](C)CC)C(C)C)C(N)=O)C(=O)O` [Compound 58], the Emax at GLP-1R (Table 3) worked out at 108%; on GLP-1R (Table 3A), 108%; at GIP-R (Table 3) it was 26%; at GIP-R (Table 3A), 26%. In addition, the EC50 at GLP-1R (Table 3) fell in the range of 0.1 to 1 nM; at GLP-1R (Table 3A), 0.1 to 1 nM; at GIP-R (Table 3), 1 to 10 nM; on GIP-R (Table 3A) it was 10 to 100 nM.
Consider `CCCCCCCCCCCCCCCC(=O)N[C@@H](CCC(=O)NCCCC[C@H](NC(=O)[C@H](CO)NC(=O)[C@@H]1CCCN1C(=O)[C@@H]1CCCN1C(=O)[C@@H]1CCCN1C(=O)[C@H](C)NC(=O)CNC(=O)[C@H](CO)NC(=O)[C@H](CO)NC(=O)[C@@H]1CCCN1C(=O)CNC(=O)CNC(=O)[C@H](C)NC(=O)[C@H](CC(C)C)NC(=O)[C@H](CC(C)C)NC(=O)[C@H](Cc1c[nH]c2ccccc12)NC(=O)[C@H](CC(N)=O)NC(=O)[C@@H](NC(=O)[C@H](Cc1ccccc1)NC(=O)[C@H](CCC(=O)O)NC(=O)C(C)(C)NC(=O)[C@H](C)NC(=O)[C@H](C)NC(=O)[C@H](CCC(N)=O)NC(=O)[C@H](CCCCN)NC(=O)[C@H](CC(=O)O)NC(=O)[C@](C)(CC(C)C)NC(=O)[C@H](Cc1ccc(O)cc1)NC(=O)[C@@H](NC(=O)[C@H](CO)NC(=O)[C@H](Cc1ccc(O)cc1)NC(=O)[C@H](CC(=O)O)NC(=O)[C@H](CO)NC(=O)[C@@H](NC(=O)[C@H](Cc1ccccc1)NC(=O)[C@@H](NC(=O)CNC(=O)[C@H](CCC(=O)O)NC(=O)CSCC(=O)NCCN1C(=O)CSC1=O)[C@@H](C)O)[C@@H](C)O)[C@@H](C)CC)C(C)C)C(N)=O)C(=O)O` [Compound 70], for which the maximal effect (Emax) amounted to 102% on GLP-1R (Table 3), 102% on GLP-1R (Table 3A), 86% at GIP-R (Table 3) and 86% on GIP-R (Table 3A). Further, the EC50 at GLP-1R (Table 3) lay in the range of 0.1 to 1 nM; on GLP-1R (Table 3A), 0.1 to 1 nM; at GIP-R (Table 3), 1 to 10 nM; at GIP-R (Table 3A), 1 to 10 nM.

The Emax is the size of the effect at its maximum, as opposed to the concentration needed.
